Measured values as given in US7700617B2, “Salt of naphthyridine carboxylic acid derivative” (LG Life Sciences, Ltd., priority 1997, dated 2010).
In brackets after ≈: the same amount, converted by molar mass.

Key:
[1] = Chemical stability at elevated temperature, decomposition by liquid chromatography; type: physicochemical; details: for Thermal stability with elapsed time: at 70° C.
Protocol: The present inventors also compared the chemical stability under heating of the hydrates with that of the anhydrate in order to identify the influence of hydration on the chemical stability. In this test, the anhydrate and hydrate were each kept at 70° C. for 4 weeks, and the extent of decomposition is analyzed by liquid chromatography. No difference in the extent of decomposition was noticed between the hydrates and the anhydrate, and thus confirming that the hydrate has the same chemical stability as the anhydrate.
The chemical stability of the n=3 hydrate of Example 2 and the n=1.5 hydrate of Example 3 and the anhydrate of Example 1 were compared at elevated temperature in order to determine the effect on chemical stability of the extent of hydration.
The anhydrate and each of the hydrates were introduced into a glass vial and maintained at 70° C. The extent of decomposition with elapsed time was analyzed by liquid chromatography.

[2] = Moisture sorption of the anhydrate, automatic moisture sorption analyzer; type: physicochemical; details: 25° C., each relative humidity 0 to 95%, in most cases
Protocol: The moisture sorption velocity and the equilibrium moisture content of the anhydrate of Example 1 was determined by means of an automatic moisture sorption analyzer (MB 300G Gravimetric Sorption Analyzer). This instrument produces a specific relative humidity at a specific temperature and continuously records the weight change of a sample due to adsorption or desorption of moisture as measured by a micro balance inside the instrument. The anhydrate of Example 1 (16 mg) was loaded onto the micro balance and the moisture contained in the sample removed under a stream of dried nitrogen at 50° C. A weight change of less than 5 μg per 5 minutes was the criterion for complete dryness. Thereafter, the inner temperature was adjusted to 25° C. and the sample tested at 5% intervals whilst varying the humidity from 0 to 95%. The sample was considered to have reached equilibrium when the weight change was less than 5 μg per 5 minutes. […] It is clear from FIG. 2 that the equilibrium moisture content of the anhydrate is dependent on the relative humidity.

[3] = Equilibrium moisture content determination of hydrates in desiccators of controlled relative humidity; type: physicochemical
Protocol: Six saturated aqueous salt solutions were introduced into each desiccator to control the inner relative humidity to a specific value as shown in Table 3. Then, equilibrium moisture contents of n=3 hydrate and n=1.5 hydrate of Examples 2 and 3, respectively, were determined at several relative humidities.
The sample (100 mg) was spread on a pre-weighed Petri dish and the total weight was accurately measured, then three of the sample were placed in each desiccator of Table 3. The desiccators were allowed to stand at normal temperature for 7 days and then the sample was taken to be weighed. After 13 days, one of the three samples inside each desiccator was taken and the moisture content of each was measured by the thermogravimetric analysis described in Test Example 2. Equilibrium moisture content at each relative humidity is represented in FIG. 3 (n=3 hydrate) and FIG. 4 (n=1.5 hydrate). […] Both hydrates are stable since they maintain a constant equilibrium moisture content regardless of the relative humidity change.

[4] = system: Pseudomonas aeruginosa 10145; experiment: In vitro antibacterial activity, agar medium dilution method; type: cell-based; details: read-out: Minimum Inhibitory Concentration: MIC
Protocol: (§1) In order to determine whether 7-(3-aminomethyl-4-methyloxyimino-pyrrolidin-1-yl)-1-cyclopropyl-6-fluoro-4-oxo-1,4-dihydro-1,8-naphthyridine-3-carboxylic acid methanesulfonate has the same antibacterial activity as the free base, in vitro antibacterial activity of the methanesulfonate was measured using agar medium dilution method.

[5] = system: Salmonella thypimurium 14028; experiment: as above; type: cell-based; details: read-out: Minimum Inhibitory Concentration: MIC
Protocol: as §1

[6] = system: Seratia marsecence 1826E; experiment: as above; type: cell-based; details: read-out: Minimum Inhibitory Concentration: MIC
Protocol: as §1

[7] = system: Enterobacter cloacae P99; experiment: as above; type: cell-based; details: read-out: Minimum Inhibitory Concentration: MIC
Protocol: as §1

[8] = system: Escherichia coli TEM5 3739E; experiment: as above; type: cell-based; details: TEM53739E, read-out: Minimum Inhibitory Concentration: MIC
Protocol: as §1

[9] = system: Micrococcus luteus 9431; experiment: as above; type: cell-based; details: read-out: Minimum Inhibitory Concentration: MIC
Protocol: as §1

[10] = system: Staphylococcus aureus epidermidis 887E; experiment: as above; type: cell-based; details: read-out: Minimum Inhibitory Concentration: MIC
Protocol: as §1

[11] = system: Acinetobacter calcoaceticus 15473; experiment: as above; type: cell-based; details: read-out: Minimum Inhibitory Concentration: MIC
Protocol: as §1

[12] = system: Staphylococcus aureus faecalis 29212; experiment: as above; type: cell-based; details: read-out: Minimum Inhibitory Concentration: MIC
Protocol: as §1

[13] = system: Staphylococcus aureus epidermidis 178; experiment: as above; type: cell-based; details: read-out: Minimum Inhibitory Concentration: MIC
Protocol: as §1

[14] = system: Staphylococcus aureus 6538p; experiment: as above; type: cell-based; details: weight ratio, molecular weight not considered, read-out: Minimum Inhibitory Concentration: MIC
Protocol: as §1

[15] = system: Staphylococcus aureus 241; experiment: as above; type: cell-based; details: read-out: Minimum Inhibitory Concentration: MIC
Protocol: as §1

[16] = system: Klebsiella aerogenes 1976E; experiment: as above; type: cell-based; details: read-out: Minimum Inhibitory Concentration: MIC
Protocol: as §1

[17] = system: Klebsiella aerogenes 1082E; experiment: as above; type: cell-based; details: read-out: Minimum Inhibitory Concentration: MIC
Protocol: as §1

[18] = system: Staphylococcus aureus 77; experiment: as above; type: cell-based; details: read-out: Minimum Inhibitory Concentration: MIC
Protocol: as §1

[19] = system: Proteus vulgaris 6059; experiment: as above; type: cell-based; details: read-out: Minimum Inhibitory Concentration: MIC
Protocol: as §1

[20] = system: Enterobacter cloacae 1194E; experiment: as above; type: cell-based; details: read-out: Minimum Inhibitory Concentration: MIC
Protocol: as §1

[21] = system: Citrobacter diversus 2046E; experiment: as above; type: cell-based; details: Citrobacter koseri, read-out: Minimum Inhibitory Concentration: MIC
Protocol: as §1

[22] = system: Escherichia coli TEM3 3455E; experiment: as above; type: cell-based; details: TEM33455E, read-out: Minimum Inhibitory Concentration: MIC
Protocol: as §1

[23] = system: Escherichia coli 851E; experiment: as above; type: cell-based; details: read-out: Minimum Inhibitory Concentration: MIC
Protocol: as §1

[24] = system: Escherichia coli 10536; experiment: as above; type: cell-based; details: read-out: Minimum Inhibitory Concentration: MIC
Protocol: as §1

[25] = system: Pseudomonas aeruginosa 1912E; experiment: as above; type: cell-based; details: read-out: Minimum Inhibitory Concentration: MIC
Protocol: as §1

[26] = system: Escherichia coli TEM9 2639E; experiment: as above; type: cell-based; details: TEM92639E, read-out: Minimum Inhibitory Concentration: MIC
Protocol: as §1

[27] = system: Escherichia coli 3190Y; experiment: as above; type: cell-based; details: read-out: Minimum Inhibitory Concentration: MIC
Protocol: as §1

[28] = system: Staphylococcus aureus giorgio; experiment: as above; type: cell-based; details: read-out: Minimum Inhibitory Concentration: MIC
Protocol: as §1

[29] = system: Bacillus subtilis 6633; experiment: as above; type: cell-based; details: read-out: Minimum Inhibitory Concentration: MIC
Protocol: as §1

[30] = Observed moisture content of the methanesulfonate hydrates; type: physicochemical; details: by hydration number (n)
Excerpt: The moisture content of the methanesulfonate hydrates varies with the hydration number (n) of the hydrated molecule. The methanesulfonate has a molecular weight of 485.5 thus the calculated moisture content of hydrates where n is 1, 1.5, 2, 2.5, 3, 3.5 and 4 is 3.6%, […], 6.9%, 8.5%, 10.0%, 11.5% and 12.9% respectively. However, the actual moisture content of the methanesulfonate hydrates may differ from the calculated value depending on various factors including recrystallization conditions and drying conditions.

SMILES | Thermal stability with elapsed time ([1]; 1 week) [%] | Thermal stability with elapsed time ([1]; 2 weeks) [%] | Thermal stability with elapsed time ([1]; 3 weeks) [%] | Thermal stability with elapsed time ([1]; 4 weeks) [%] | Thermal stability with elapsed time ([1]; Initial) [%] | MIC [4] [µg/mL] | MIC [5] [µg/mL] | MIC [6] [µg/mL] | MIC [8] [µg/mL] | MIC [9] [µg/mL] | MIC [10] [µg/mL] | MIC [11] [µg/mL] | MIC [12] [µg/mL] | MIC [13] [µg/mL] | MIC [14] [µg/mL] | MIC [15] [µg/mL] | MIC [16] [µg/mL] | MIC [18] [µg/mL] | MIC [19] [µg/mL] | MIC [22] [µg/mL] | also measured
CON=C1CN(c2nc3c(cc2F)c(=O)c(C(=O)O)cn3C2CC2)CC1CN.CS(=O)(=O)O (centres unmarked) [Anhydrate, 7-(3-aminomethyl-4-methoxyiminopyrrolidin-1-yl)-1-cyclopropyl-6-fluoro-4-oxo-1,4-dihydro-1,8-naphthyridine-3-carboxylic acid methanesulfonate anhydrate] | 99.8 | 98.6 | 97.7 | 96.7 | 100 |  |  |  |  |  |  |  |  |  |  |  |  |  |  |  | Time to reach moisture sorption equilibrium [2]: ≤ 2 h
CON=C1CN(c2nc3c(cc2F)c(=O)c(C(=O)O)cn3C2CC2)CC1CN.CS(=O)(=O)O.O.O.O (centres unmarked) [n = 3 hydrate, 7-(3-aminomethyl-4-methoxyiminopyrrolidin-1-yl)-1-cyclopropyl-6-fluoro-4-oxo-1,4-dihydro-1,8-naphthyridine-3-carboxylic acid methanesulfonate n=3 hydrate] | 102.4 | 100.7 | 99.2 | 99.2 | 100 |  |  |  |  |  |  |  |  |  |  |  |  |  |  |  | Chemical stability compared with the anhydrate ([1]; 70° C., 4 weeks, liquid chromatography): same degree of chemical stability as the anhydrate; Relative humidity range with constant moisture content ([3]; FIGS. 3 and 4): 23 to 75%; Equilibrium moisture content ([3]; relative humidity 23 to 75%, about 2 weeks): around 10%
CON=C1CN(c2nc3c(cc2F)c(=O)c(C(=O)O)cn3C2CC2)CC1CN.CS(=O)(=O)O (centres unmarked) [Methanesulfonic acid salt, 7-(3-aminomethyl-4-methyloxyimino-pyrrolidin-1-yl)-1-cyclopropyl-6-fluoro-4-oxo-1,4-dihydro-1,8-naphthyridine-3-carboxylic acid methanesulfonate] |  |  |  |  |  | 0.5 | 0.031 | 0.13 | 0.13 | 0.13 | 0.016 | 0.031 | 0.13 | 4 | 0.016 | 4 | 0.13 | 0.031 | 0.25 | 0.25 | MIC [7]: 0.016 µg/mL; MIC [17]: 0.031 µg/mL; MIC [20]: 0.031 µg/mL; MIC [21]: 0.031 µg/mL; MIC [23]: 0.016 µg/mL; MIC [24]: 0.008 µg/mL; MIC [25]: 0.25 µg/mL; MIC [26]: 0.031 µg/mL; MIC [27]: 0.008 µg/mL; MIC [28]: 0.016 µg/mL; MIC [29]: 0.016 µg/mL
O=C(O)c1cn(C2CC2)c2cc(N3CCNCC3)c(F)cc2c1=O [Ciprofloxacin, ciprofloxacin, reference compound] |  |  |  |  |  | 0.5 (≈ 1.51 µM) | 0.031 (≈ 0.0936 µM) | 0.063 (≈ 0.19 µM) | 0.13 (≈ 0.392 µM) | 2 (≈ 6.04 µM) | 0.13 (≈ 0.392 µM) | 0.25 (≈ 0.754 µM) | 0.5 (≈ 1.51 µM) | 128 (≈ 386 µM) | 0.13 | 128 (≈ 386 µM) | 0.13 (≈ 0.392 µM) | 0.25 (≈ 0.754 µM) | 0.031 (≈ 0.0936 µM) | 0.5 (≈ 1.51 µM) | MIC [23]: < 0.008 µg/mL; MIC [24]: < 0.008 µg/mL; MIC [25]: 0.13 µg/mL (≈ 0.392 µM); MIC [27]: < 0.008 µg/mL; MIC [28]: 0.13 µg/mL (≈ 0.392 µM); MIC [29]: 0.031 µg/mL (≈ 0.0936 µM)
CON=C1CN(c2nc3c(cc2F)c(=O)c(C(=O)O)cn3C2CC2)CC1CN.CON=C1CN(c2nc3c(cc2F)c(=O)c(C(=O)O)cn3C2CC2)CC1CN.CS(=O)(=O)O.CS(=O)(=O)O.O.O.O.O.O.O.O (centres unmarked) [n = 3.5 hydrate] |  |  |  |  |  |  |  |  |  |  |  |  |  |  |  |  |  |  |  |  | Moisture Content [30]: 11~12 % w/w
